This is an account of results in patent US6187800A, “Method for the prevention and treatment of mastitis” (Novartis Animal Health U.S., Inc., priority 1997, dated 2001).

Common to all, as to assay: MIC, agar well diffusion method
What all share (format): cell-based

Assay [1] concerns Staphylococcus aureus V557. As to conditions: 37° C. overnight. As to the method: (§1) The minimal inhibitory concentrations (MIC) of micrococcin P1 against a panel of test organisms were determined using an agar well diffusion method. Agar plates were overlaid with soft agar seeded with the test organism. When the agar had solidified wells of 4 mm diameter were cut in the agar. 50 μl of a series of two fold dilutions of the peptide in citrate buffer pH4 were applied to the wells and the plates were kept at 4° C. for two hours prior to incubation at 37° C. overnight. The MIC was determined as the lowest concentration of peptide giving a clear zone of lysis around the well. Indicator strains were grown in Tryptose broth (Difco). M17 medium (Merck) was used for plates and soft agar with the following exceptions. For Pasteurella haemolytica, tryptose supplemented with 5% of toetal calf's serum was used. For Leuconostoc mesenteroides, plate count agar--Merck--, +15% saccharose was used, and for Bacillus cereus plate count agar +0.2% potato starch-Sigma 2004-) was used.

Assay [2] relates to Bacillus cereus. As to conditions: plate count agar +0.2% potato starch. As to the method:
as §1

Assay [3] concerns Micrococcus luteus. The following applies: 37° C. overnight. As to the method:
as §1

Assay [4] concerns Pasteurella haemolytica. As to conditions: tryptose + 5% foetal calf's serum. The protocol: as §1
Assay [5] relates to Staphylococcus aureus Newbould. The following applies: 37° C. overnight. As to the method:
as §1

The test system of assay [6] is Listeria innocua. As to conditions: 37° C. overnight. As to the method: as §1
Assay [7] has as its system Streptococcus uberis. As to conditions: 37° C. overnight. The protocol:
as §1

Assay [8] deals with E.coli. The following applies: 37° C. overnight. As to the method: as §1
For assay [9], the system named is Streptococcus faecalis. The following applies: 37° C. overnight. As to the method: as §1
Assay [10] concerns Leuconostoc mesenteroides. The following applies: plate count agar +15% saccharose. As to the method: as §1

In the case of micrococcin P1, the minimum inhibitory concentration (MIC) in [1] was 1.91 µg/mL; in assay [2], 0.24 µg/mL; in [3], 0.015 µg/mL; in [4], over 1000 µg/mL; in assay [5], 0.24 µg/mL; in [6] it was 1.95 µg/mL. Moreover, the minimal inhibitory concentration (MIC) in assay [7] was 1.49 µg/mL; in assay [8] it was over 1000 µg/mL; in assay [9] it was 1.98 µg/mL; in [10], over 1000 µg/mL.
